Like-named read-outs stand apart in the source and are kept apart here.
Columns and labels:
[1] = Pharmacokinetics in adult Sprague-Dawley rats; format: in vivo; conditions: average n = 4; for Cmax / AUC / AUC(0-t): rat blood
Experimental: All animal studies were approved by the Montreal Heart Institute (MHI) Animal Care and Ethical committee. Pharmacokinetic experiments were performed in collaboration at the Montreal Heart Institute in collaboration with the Platform of Biopharmacy at Université de Montréal. Briefly, Compound 2 (formulation PG:H20; 50:50 stock solution 2.5 mg/ml) was administered intravenously (iv) at 5 mg/kg (n=4) or by oral gavage (PO) at 25 mg/kg (n=4) in adult Sprague-Dawley male rats (˜200 g). […] Samples were mixed and centrifuged at 15000 rpm for 5 min. 50 μL of supernatant were transferred to an HPLC plate, and 100 μL of water+0.1% formic acid were added. […] Samples were analyzed in MRM mode using LC-MS/MS. The calibration curve was plotted using the ratio of the analyte peak area and the IS peak area, using a quadratic regression. Pharmacokinetic (PK) parameters were calculated using Kinetica Software for PK/PD Data Analysis, Simulation and Reporting (Thermo Fisher), based on the blood concentrations of each animal. Results are described in Table 4 and illustrated in FIG. 20.

[2] = test system: LDLR protein; experiment: Western blot analysis, relative quantification of LDLR protein levels; format: cell-based, human; conditions: overnight, hepatoma cells (HepG2, FIG. 13), normalized to actin, vehicle (DMSO) = 1
Experimental: For sterol-regulated conditions, HepG2 cells were incubated in 5% LPDS, 50 μM mevastatin, and 50 μM mevalonolactone in the absence (-sterols) or presence of 1 μg/ml 25-hydroxycholesterol and 10 μg/ml cholesterol (+sterols). For inhibitor treatments HepG2 cells were treated with DMSO or 10 μM compounds 2 in combination with U0126 (25 μM, catalog no. 9903, Cell Signaling Technology), Cycloheximide (CHX; 20 μg/ml, catalog no. C7698, Sigma-Aldrich), PD153035 (20 μM, catalog no. 14879, Cayman Chemical), bisindolylmaleimide I (BIM; 10 μM, catalog no. 13298, Cayman Chemical), H-89 (10 μM, catalog no. 10010556, Cayman Chemical), Dorsomorphin (5 μM, catalog no. 11967, Cayman Chemical) or 5-Azacytidine (10 μM, catalog no. A2385, Sigma-Aldrich).
Treated cells from Example 28 were washed three times in phosphate-buffered saline (PBS) and lysed in radioimmune precipitation assay buffer (50 mM Tris/HCl, pH 8.0, 1% (v/v) Nonidet P-40, 0.5% sodium deoxycholate, 150 mM NaCl, and 0.1% (v/v) SDS) supplemented with a complete protease inhibitor mixture (catalog no. 11 697 498 001, Roche Applied Science). Proteins were separated by 8% SDS polyacrylamide gel electrophoresis, blotted on nitrocellulose membranes (Bio-Rad), and blocked for 1 h in Tris-buffered saline-Tween 20 (TBS-T; 50 mM Tris-HCl, pH 7.5, 150 mM NaCl, 0.1% Tween 20) containing 5% nonfat dry milk. Membranes were then incubated overnight in TBS-T supplemented with 1% nonfat milk and the indicated antibodies; goat anti-human LDLR (1:1000; catalog no. AF2148, R&D Systems), rabbit anti-actin (1:5000; catalog no. A2066, Sigma-Aldrich). Appropriate HRP-conjugated secondary antibodies (1:10,000; GE healthcare) were used for detection using the Western Lightning Ultra chemiluminescence kit (catalog no. NEI112001EA, PerkinElmer Life Sciences) and BioFlex EC Films (catalog no. CLEC810, InterScience). Unsaturated films were numerized using the high resolution CanoScan 9000F scanner and corresponding bands were quantified using the ImageJ software (NIH). Relative quantification of LDLR protein levels were normalized to that of actin and compared to vehicle (DMSO) herein determined as 1.

[3] = test system: Golden Syrian; experiment: Efficacy and safety in hypercholesterolemic animal models, Golden Syrian; format: in vivo; conditions: 10 days
Experimental: (§1) For in vivo proof-of-concept animal studies, wild-type C57BL/6 male mice (˜25 g; obtained from Charles River Laboratories) or Golden Syrian (˜120 g obtained from Envigo++) were housed in the 12 hour light/12 hour dark cycle, temperature and humidity controlled MHI animal facility. […] TD.88137, Envigo) for 14 days. […] Equivalent volume of vehicle containing corresponding formulations were orally administered to mice daily and designated as placebo (vehicle). […] Total cholesterol (catalog no. 439-17501, Wako) was quantified in total plasma and in each 0.3 mL collected fractions or in-line (Lipidomics Core of The Group on Molecular and Cell Biology of Lipids, University of Alberta) according to the manufacturer's instructions. Relative quantitation of AUC of total cholesterol corresponding to non-HDL lipoprotein positive fractions obtained from FPLC profiles are included in Table 3. Serum aspartate aminotransferase (AST) and alanine transaminase (ALT) were measured by the Montreal Heart Institute biochemical clinical chemistry platform according to manufacturer's recommendations.

[4] = test system: C57BL/6 mice; experiment: Efficacy and safety in hypercholesterolemic animal models, C57BL/6 mice; format: in vivo
Experimental: as §1

[5] = Cell viability assay (MTT); format: cell-based; conditions: human; overnight incubation, viability relative to DMSO
Experimental: Following incubation, media was replaced and cells incubated for 4 h with 100 μL of phenol red-free DMEM containing 0.5 mg/mL of MTT (3-[4,5-dimethylthiazol-2-yl]-2,5-diphenyltetrazolium bromide; thiazolyl blue; catalog no. M5655, Sigma-Aldrich). Afterwards, media was removed and converted dye solubilized with 100 μL acidic isopropanol (0.06 N) and absorbance measured at a wavelength of 570 nm with background subtraction at 650 nm. Arbitrary units of cell viability of a given example were determined relative to equal volume of DMSO (vehicle) for each concentration used.

[6] = male, Sprague-Dawley, rat, whole blood, PO 25 mg/kg
[7] = male, Sprague-Dawley, rat, whole blood, iv 5 mg/kg
[8] = male, Sprague-Dawley, whole blood, PO 25 mg/kg
[9] = male, Sprague-Dawley, whole blood, iv 5 mg/kg
[10] = HFD, 40 mpk/d, animals out of n
[11] = C57BL/6, HFD, 40 mpk/d, 10 days, animals out of n

## O=C(NO)c1ncc(COc2ccc(F)cc2)c(CO)c1O [Compound 2, 5-(4-fluoro-phenoxymethyl)-3-hydroxy-4-hydroxymethyl-pyridine-2-carboxylic acid hydroxyamide]
[1]; PO 25 mg/kg
  Lz: 0.24 h⁻¹
  Vss: 2.43 L
  clearance: 13.44 mL/min
  thalf: 2.97 h
  Cmax: 7.09 μMolar
[1]; iv 5 mg/kg
  Lz: 0.12 h⁻¹
  thalf: 6.60 h
  Cmax: 81.12 μMolar
[1]; male, Sprague-Dawley, rat, whole blood, PO 25 mg/kg vs iv 5 mg/kg
  bioavailability: 15%
[1]; [6]
  MRT: 206 min
  Tmax: 19.8 min
[1]; [7]
  MRT: 33 min
  Tmax: 4.8 min
[1]; male, Sprague-Dawley, rat, whole blood, iv 5 mg/kg, read-out: Clearance
  clearance: 2.2 mL/min
[1]; male, Sprague-Dawley, rat, whole blood, iv 5 mg/kg, read-out: Vss
  Vd: 0.08 L
[1]; [8]
  AUC: 24.3 µM·h
  AUC(0-t): 24.2 µM·h
[1]; [9]
  AUC: 31.9 µM·h
  AUC(0-t): 31.8 µM·h
[2]; 10 nM
  LDLR Fold Change 10 nM: 2
[2]; 10 μM
  LDLR Fold Change 10 μM: 6.3
[3]; Chow, 40 mpk/d, n 3
  LDL-C (%) (FPLC TC) (pooled plasma): −12%
[3]; HFD, 5 mpk/d, n 3
  LDL-C (%) (FPLC TC) (pooled plasma): −21 ± 10%
[3]; HFD, 10 mpk/d, n 3
  LDL-C (%) (FPLC TC) (pooled plasma): −15 ± 16%
[3]; HFD, 20 mpk/d, n 3
  LDL-C (%) (FPLC TC) (pooled plasma): −40 ± 7%
[3]; [10]
  ALT (3 × ULN): 0/3
  AST (3 × ULN): 0/3
[3]; HFD, 40 mpk/d, n 3 (second HFD 40 mpk/d line)
  LDL-C (%) (FPLC TC) (pooled plasma): −26 ± 12%
[3]; HFD, 40 mpk/d, n 3, value marked (n = 1)
  LDL-C (%) (FPLC TC) (pooled plasma): −47%
[4]; C57BL/6, Chow, 25 mpk/d oral gavage, 3 days, n 3
  LDL-C (%) (FPLC TC) (pooled plasma): −31%
[4]; C57BL/6, HFD, 5 mpk/d oral gavage, 10 days, n 4
  LDL-C (%) (FPLC TC) (pooled plasma): −3 ± 8%
[4]; C57BL/6, HFD, 25 mpk/d oral gavage, 10 days, n 4
  LDL-C (%) (FPLC TC) (pooled plasma): −28 ± 8%
[4]; C57BL/6, HFD, 40 mpk/d oral gavage, 10 days, n 4
  LDL-C (%) (FPLC TC) (pooled plasma): −35 ± 2%
[4]; [11]
  ALT (3 × ULN): 0/4
  AST (3 × ULN): 0/4
[5]
  CC50: 50 µM

Source: patent publication US11400082B2, “Methods of treating elevated plasma cholesterol” (Montréal Heart Institute, priority 2017, dated 2022)
